Test system: lung gene expression
Assay: RNA sequencing of lung tissue (BLM/EL244 vs BLM)
Assay type: in vivo, mouse
Settings: lung tissue, BLM/EL244 vs BLM
Experimental: RNA quality was assessed using an Agilent TapeStation 4150 with the High Sensitivity […] ScreenTape (Agilent), according to the manufacturer’s protocols. For library preparation, the QuantSeq 3’mRNA-Seq Library Prep Kit (Lexogen) was used according to manufacturer’s instructions. Briefly, 500 ng of RNA from each sample was used for first-strand synthesis, followed by RNA template removal, and second-strand synthesis initiated by random primers. In-line barcodes were introduced at this step, and this was followed by magnetic bead-based purification. The resulting libraries were amplified for 15 cycles and re-purified, with quantity and quality assessed on a Qubit 4 Fluorometer with the Invitrogen Qubit dsDNA HS Assay and an Agilent Tapestation 4150 with the High Sensitivity D1000 assay kit, respectively. The quantified libraries were pooled equimolarly; 50ng of total library mix was used for Adapter Conversion PCR Amplification using the Universal Library Conversion Kit (App-A), Version: V1.0 (MGI Tech Co., Ltd.), according to the manufacturer’s instructions.
The quantity and quality of the purified adapter conversion PCR (AC-PCR) product were evaluated on a Qubit 4 Fluorometer with the Invitrogen Qubit dsDNA HS Assay and on an Agilent Tapestation 4150 with the High Sensitivity D1000 assay kit, respectively. This was followed by DNA denaturation, Single-Strand Circularisation, Enzymatic Digestion, Enzymatic Digestion Product Cleanup and Quality Control steps on 1 pmol of AC-PCR product, according to the Universal Library Conversion Kit (App-A) User Manual (Version: A3).
Finally, 60 fmol of ssCirDNA were used for DNB preparation and sequencing on a DNBSEQ-G400 platform at the BSRC Alexander Fleming Genomics Facility, using a G400 App-A FCS SE100 High-throughput Sequencing Set (MGI Tech Co., Ltd.), according to the manufacturer’s instructions.
Alignment of the FASTQ files was performed against the mouse genome build mm10 using a custom Bash script.[143] Read counting on the 3′ UTRs and differential expression analysis were conducted using the metaseqR2 bioconductor package.[144] Genes corresponding to the following biotypes were excluded: polymorphic_pseudogene, processed_transcript, pseudogene, IG_V_pseudogene, misc_RNA, IG_C_gene, IG_J_gene, IG_D_gene, IG_LV_gene, TR_V_gene, TR_V_pseudogene, TEC, and processed_pseudogene. Gene counts were normalized with DESEQ[145] through metaseqR2. Genes with more than 10 counts in at least 50% of the samples were kept for further processing. For differential expression analysis, the PANDORA algorithm[146] was used to estimate a meta p-value integrating the results from the DESEQ, DESEQ2,[147] edgeR,[148] limma,[149] NBPSeq,[150] and NOISeq[151] algorithms. All additional parameters were set to default values.
Pathway enrichment analysis was performed for the Gene Ontology Biological process (BP) and Molecular Function (MF) terms through GeneCodis 4.[152] The volcano plots, scatterplots, Venn diagrams, and dot plots were generated using the ggplot2 Bioconductor package.

With O=C1NC(=O)C(Cc2ccc(OCCC3CCN(C(=O)OCc4cc(Cl)cc(Cl)c4)CC3)cc2)S1 (centres unmarked) [EL244, 3,5-dichlorobenzyl 4-(2-(4-((2,4-dioxothiazolidin-5-yl)methyl)phenoxy)ethyl)piperidine-1-carboxylate] the “log2 nFC Hells” value was -1.30, the “log2 nFC Il18bp” value was -0.95 and the “log2 nFC Ildr2” value was -1.32. The “log2 nFC Itm2a” value was -1.25, the “log2 nFC Kcnn4” value was -1.27 and the “log2 nFC Kdelr3” value was -1.25. For the same compound, the “log2 nFC Kif23” value was -1.20, the “log2 nFC Klhdc8a” value was -1.02 and the “log2 nFC Kntc1” value was -1.39. For the same compound, the “log2 nFC Lair1” value was -0.92, the “log2 nFC Lat2” value was -1.10 and the “log2 nFC Lcn2” value was -0.95. For the same compound, the “log2 nFC Lgals1” value was -1.12, the “log2 nFC Lgmn” value was -1.09 and the “log2 nFC Lilrb4a” value was -0.89. For the same compound, the “log2 nFC Lmnb1” value was -0.91, the “log2 nFC Loxl2” value was -0.91 and the “log2 nFC Lrg1” value was -0.89. The “log2 nFC Lum” value was -1.32, the “log2 nFC Mad2l1” value was -0.97 and the “log2 nFC Mafb” value was -0.92. The “log2 nFC Mark1” value was -1.23, the “log2 nFC Mcm5” value was -1.33 and the “log2 nFC Mdk” value was -1.34. The “log2 nFC Mfap5” value was -1.12, the “log2 nFC Mfrp” value was -0.87 and the “log2 nFC Mgp” value was -1.03. For the same compound, the “log2 nFC Mir692-1” value was -1.18, the “log2 nFC Mmp14” value was -1.31 and the “log2 nFC Ms4a6c” value was -0.91. The “log2 nFC Ms4a6d” value was -0.93, the “log2 nFC Ncapd2” value was -1.29 and the “log2 nFC Ndnf” value was -0.87. For the same compound, the “log2 nFC Nnat” value was -1.34, the “log2 nFC Nrcam” value was -1.26 and the “log2 nFC Nrep” value was -1.26. The “log2 nFC P2ry6” value was -0.93, the “log2 nFC Paox” value was -0.92 and the “log2 nFC Pcdh7” value was -1.03. For the same compound, the “log2 nFC Pdlim4” value was -1.24, the “log2 nFC Plk4” value was -1.31 and the “log2 nFC Polh” value was -0.87. For the same compound, the “log2 nFC Ppic” value was -1.10, the “log2 nFC Prdx4” value was -0.94 and the “log2 nFC Psat1” value was -0.98. For the same compound, the “log2 nFC Psrc1” value was -1.26, the “log2 nFC Pth1r” value was -1.40 and the “log2 nFC Racgap1” value was -1.21. The “log2 nFC Rcc1” value was -0.92, the “log2 nFC Rgs4” value was -1.23 and the “log2 nFC Rgs5” value was -1.00. For the same compound, the “log2 nFC Rhof” value was -1.02, the “log2 nFC S100a4” value was -1.26 and the “log2 nFC S100a14” value was -1.28. For the same compound, the “log2 nFC Scn3b” value was -0.91, the “log2 nFC Serpina3g” value was -1.31 and the “log2 nFC Serpina3n” value was -1.22. The “log2 nFC Serpine1” value was -0.98, the “log2 nFC Serpine2” value was -0.87 and the “log2 nFC Serpinh1” value was -0.87. For the same compound, the “log2 nFC Sertad4” value was -1.35, the “log2 nFC Sfn” value was -1.19 and the “log2 nFC Sh2b2” value was -1.23. For the same compound, the “log2 nFC Slamf8” value was -1.24, the “log2 nFC Smc2” value was -0.98 and the “log2 nFC Snai1” value was -0.97. The “log2 nFC Spc24” value was -1.13, the “log2 nFC St8sia6” value was -1.04 and the “log2 nFC Tacc3” value was -1.27. The “log2 nFC Tiam1” value was -1.04, the “log2 nFC Tlr2” value was -1.04 and the “log2 nFC Tnfaip8l1” value was -1.08. The “log2 nFC Tnfrsf11a” value was -1.12, the “log2 nFC Tns4” value was -1.20 and the “log2 nFC Traf4” value was -1.10. The “log2 nFC Tubb2b” value was -1.19, the “log2 nFC Tyms” value was -1.02 and the “log2 nFC Ulbp1” value was -1.06. The “log2 nFC Vcan” value was -1.21, the “log2 nFC Wfdc17” value was -1.30 and the “nFC 1500009L16Rik” value was 0.43. For the same compound, the “nFC 2200002D01Rik” value was 0.54, the “nFC AA467197” value was 0.38 and the “nFC Adamts2” value was 0.50. For the same compound, the “nFC Areg” value was 0.49, the “nFC Arhgap11a” value was 0.46 and the “nFC Armcx4” value was 0.40. The “nFC Asf1b” value was 0.45, the “nFC Bcl2a1b” value was 0.45 and the “nFC Bcl2a1d” value was 0.41. For the same compound, the “nFC Bub1b” value was 0.44, the “nFC C1qtnf5” value was 0.55 and the “nFC C1qtnf6” value was 0.38. The “nFC Ccdc8” value was 0.46, the “nFC Ccl9” value was 0.39 and the “nFC Ccl17” value was 0.52. The “nFC Cd68” value was 0.50, the “nFC Cd72” value was 0.50 and the “nFC Cd248” value was 0.42. The “nFC Cd300c2” value was 0.54, the “nFC Cdca2” value was 0.40 and the “nFC Cenpa” value was 0.40. The “nFC Cenpw” value was 0.40, the “nFC Cercam” value was 0.39 and the “nFC Ch25h” value was 0.53. For the same compound, the “nFC Cilp” value was 0.38, the “nFC Clcn5” value was 0.53 and the “nFC Clec4a2” value was 0.42. The “nFC Clec4n” value was 0.38, the “nFC Clec5a” value was 0.45 and the “nFC Clec11a” value was 0.50. The “nFC Clec12a” value was 0.53, the “nFC Col1a2” value was 0.38 and the “nFC Col8a1” value was 0.44. For the same compound, the “nFC Col12a1” value was 0.54, the “nFC Col15a1” value was 0.47 and the “nFC Col16a1” value was 0.53. The “nFC Cotl1” value was 0.54, the “nFC Csf2rb2” value was 0.50 and the “nFC Cstb” value was 0.52. For the same compound, the “nFC Ctsk” value was 0.51, the “nFC Ctss” value was 0.53 and the “nFC Cx3cr1” value was 0.44. The “nFC Cyp7b1” value was 0.38, the “nFC Dbn1” value was 0.54 and the “nFC Dclk1” value was 0.55. For the same compound, the “nFC Diaph3” value was 0.46, the “nFC Dio2” value was 0.38 and the “nFC Dok2” value was 0.39. The “nFC Dut” value was 0.54, the “nFC Egr2” value was 0.54 and the “nFC Epha4” value was 0.54. The “nFC F10” value was 0.46, the “nFC Fam20c” value was 0.48 and the “nFC Fbn1” value was 0.49. For the same compound, the “nFC Fcgr1” value was 0.41, the “nFC Fcgr2b” value was 0.47 and the “nFC Fcrls” value was 0.39. The “nFC Fen1” value was 0.50, the “nFC Fgf13” value was 0.38 and the “nFC Fkbp10” value was 0.42. The “nFC Fndc1” value was 0.46, the “nFC Fscn1” value was 0.43 and the “nFC Fst” value was 0.48. For the same compound, the “nFC Fstl1” value was 0.43, the “nFC Gas2l3” value was 0.40 and the “nFC Gm13889” value was 0.55. The “nFC Gm25380” value was 0.50, the “nFC Gm42674” value was 0.44 and the “nFC Gm49339” value was 0.52. The “nFC Hells” value was 0.41, the “nFC Il18bp” value was 0.52 and the “nFC Ildr2” value was 0.40. For the same compound, the “nFC Itm2a” value was 0.42, the “nFC Kcnn4” value was 0.41 and the “nFC Kdelr3” value was 0.42. For the same compound, the “nFC Kif23” value was 0.44, the “nFC Klhdc8a” value was 0.49 and the “nFC Kntc1” value was 0.38. For the same compound, the “nFC Lair1” value was 0.53, the “nFC Lat2” value was 0.47 and the “nFC Lcn2” value was 0.52. For the same compound, the “nFC Lgals1” value was 0.46, the “nFC Lgmn” value was 0.47 and the “nFC Lilrb4a” value was 0.54. For the same compound, the “nFC Lmnb1” value was 0.53, the “nFC Loxl2” value was 0.53 and the “nFC Lrg1” value was 0.54. For the same compound, the “nFC Lum” value was 0.40, the “nFC Mad2l1” value was 0.51 and the “nFC Mafb” value was 0.53. For the same compound, the “nFC Mark1” value was 0.42, the “nFC Mcm5” value was 0.40 and the “nFC Mdk” value was 0.40. For the same compound, the “nFC Mfap5” value was 0.46, the “nFC Mfrp” value was 0.55 and the “nFC Mgp” value was 0.49. The “nFC Mir692-1” value was 0.44, the “nFC Mmp14” value was 0.40 and the “nFC Ms4a6c” value was 0.53. For the same compound, the “nFC Ms4a6d” value was 0.53, the “nFC Ncapd2” value was 0.41 and the “nFC Ndnf” value was 0.55. The “nFC Nnat” value was 0.40, the “nFC Nrcam” value was 0.42 and the “nFC Nrep” value was 0.42. The “nFC P2ry6” value was 0.52, the “nFC Paox” value was 0.53 and the “nFC Pcdh7” value was 0.49. The “nFC Pdlim4” value was 0.42, the “nFC Plk4” value was 0.40 and the “nFC Polh” value was 0.55. For the same compound, the “nFC Ppic” value was 0.47, the “nFC Prdx4” value was 0.52 and the “nFC Psat1” value was 0.51. For the same compound, the “nFC Psrc1” value was 0.42, the “nFC Pth1r” value was 0.38 and the “nFC Racgap1” value was 0.43. The “nFC Rcc1” value was 0.53, the “nFC Rgs4” value was 0.42 and the “nFC Rgs5” value was 0.50. For the same compound, the “nFC Rhof” value was 0.49, the “nFC S100a4” value was 0.42 and the “nFC S100a14” value was 0.41. The “nFC Scn3b” value was 0.53, the “nFC Serpina3g” value was 0.40 and the “nFC Serpina3n” value was 0.43. The “nFC Serpine1” value was 0.51, the “nFC Serpine2” value was 0.55 and the “nFC Serpinh1” value was 0.55. The “nFC Sertad4” value was 0.39, the “nFC Sfn” value was 0.44 and the “nFC Sh2b2” value was 0.43. For the same compound, the “nFC Slamf8” value was 0.42, the “nFC Smc2” value was 0.51 and the “nFC Snai1” value was 0.51. For the same compound, the “nFC Spc24” value was 0.46, the “nFC St8sia6” value was 0.49 and the “nFC Tacc3” value was 0.42. For the same compound, the “nFC Tiam1” value was 0.49, the “nFC Tlr2” value was 0.48 and the “nFC Tnfaip8l1” value was 0.47. The “nFC Tnfrsf11a” value was 0.46, the “nFC Tns4” value was 0.44 and the “nFC Traf4” value was 0.47. For the same compound, the “nFC Tubb2b” value was 0.44, the “nFC Tyms” value was 0.49 and the “nFC Ulbp1” value was 0.48. For the same compound, the “nFC Vcan” value was 0.43 and the “nFC Wfdc17” value was 0.41.

Source: PMC13198257, “An aerosolized dual-action autotaxin inhibitor-PPARγ agonist for the treatment of pulmonary fibrosis” (Cell Reports Medicine, 2026)
